# Laboratory results reported in PMC10167348, “Structural mechanisms of TRPM7 activation and inhibition” (Nature Communications, 2023).
# Tests used:
# TRPM7-L671A = molecular target: T1, TRPM7-L671A (Mus musculus, UniProt Q923J1, L671A); assay: Whole-cell patch-clamp recordings in HEK 293T cells; format: cell-based; settings: 50 and 100 μM NTB
# T1 construct: expressed in transfected cells; host or cells: HEK 293T
# Protocol: (§1) Patch-clamp experiments were performed as reported previously, with a few modifications[69],[70]. HEK 293T cells grown in 35-mm dishes to ~60% confluence were transiently transfected with Trpm7 cDNAs in the pIRES2-EGFP vector (2 µg/dish). Patch-clamp experiments were conducted 18–22 h after transfection with cells displaying EGFP fluorescence. Whole-cell currents were recorded using an EPC10 patch-clamp amplifier and PatchMaster software (Version V2x69, Harvard Bioscience). Voltages were corrected for a liquid junction potential of 10 mV. Currents were elicited by voltage ramps from –100 mV to +100 mV over 50 ms acquired at 0.5 Hz. The inward and outward current amplitudes were measured at –80 mV and +80 mV and were normalized to the cell size as pA/pF. The capacitance was measured using the automated capacitance cancellation function of EPC10. The standard extracellular solution contained 140 mM NaCl, 2.8 mM KCl, 1 mM CaCl2, 2 mM MgCl2, 10 mM HEPES-NaOH, and 11 mM glucose (all from Sigma-Aldrich). Solutions were adjusted to pH 7.2 using an FE20 pH meter (Mettler Toledo) and to 290 mOsm using a Vapro 5520 osmometer (Wescor Inc). […] For the experiment with naltriben, the intracellular solution contained 120 mM Cs-glutamate, 8 mM NaCl, 10 mM Cs-EGTA, 1.5 mM MgCl2, and 10 mM HEPES-CsOH. The intracellular solution was also adjusted to pH 7.2 and 290 mOsm. Data are presented as the mean ± SEM Unless indicated otherwise, data were compared by unpaired t-test (GraphPad Prism 8.4.0). For multiple comparisons, ordinary one-way ANOVA (GraphPad Prism 8.4.0) was used. Significance was accepted at P ≤ 0.05.
# TRPM7-N752K = molecular target: T2, TRPM7-N752K (Mus musculus, UniProt Q923J1, N752K); assay: as above; format: cell-based; settings: 50 and 100 μM NTB
# T2 construct: expressed in transfected cells; host or cells: HEK 293T
# T2 sequence (Q923J1 whole entry N752K): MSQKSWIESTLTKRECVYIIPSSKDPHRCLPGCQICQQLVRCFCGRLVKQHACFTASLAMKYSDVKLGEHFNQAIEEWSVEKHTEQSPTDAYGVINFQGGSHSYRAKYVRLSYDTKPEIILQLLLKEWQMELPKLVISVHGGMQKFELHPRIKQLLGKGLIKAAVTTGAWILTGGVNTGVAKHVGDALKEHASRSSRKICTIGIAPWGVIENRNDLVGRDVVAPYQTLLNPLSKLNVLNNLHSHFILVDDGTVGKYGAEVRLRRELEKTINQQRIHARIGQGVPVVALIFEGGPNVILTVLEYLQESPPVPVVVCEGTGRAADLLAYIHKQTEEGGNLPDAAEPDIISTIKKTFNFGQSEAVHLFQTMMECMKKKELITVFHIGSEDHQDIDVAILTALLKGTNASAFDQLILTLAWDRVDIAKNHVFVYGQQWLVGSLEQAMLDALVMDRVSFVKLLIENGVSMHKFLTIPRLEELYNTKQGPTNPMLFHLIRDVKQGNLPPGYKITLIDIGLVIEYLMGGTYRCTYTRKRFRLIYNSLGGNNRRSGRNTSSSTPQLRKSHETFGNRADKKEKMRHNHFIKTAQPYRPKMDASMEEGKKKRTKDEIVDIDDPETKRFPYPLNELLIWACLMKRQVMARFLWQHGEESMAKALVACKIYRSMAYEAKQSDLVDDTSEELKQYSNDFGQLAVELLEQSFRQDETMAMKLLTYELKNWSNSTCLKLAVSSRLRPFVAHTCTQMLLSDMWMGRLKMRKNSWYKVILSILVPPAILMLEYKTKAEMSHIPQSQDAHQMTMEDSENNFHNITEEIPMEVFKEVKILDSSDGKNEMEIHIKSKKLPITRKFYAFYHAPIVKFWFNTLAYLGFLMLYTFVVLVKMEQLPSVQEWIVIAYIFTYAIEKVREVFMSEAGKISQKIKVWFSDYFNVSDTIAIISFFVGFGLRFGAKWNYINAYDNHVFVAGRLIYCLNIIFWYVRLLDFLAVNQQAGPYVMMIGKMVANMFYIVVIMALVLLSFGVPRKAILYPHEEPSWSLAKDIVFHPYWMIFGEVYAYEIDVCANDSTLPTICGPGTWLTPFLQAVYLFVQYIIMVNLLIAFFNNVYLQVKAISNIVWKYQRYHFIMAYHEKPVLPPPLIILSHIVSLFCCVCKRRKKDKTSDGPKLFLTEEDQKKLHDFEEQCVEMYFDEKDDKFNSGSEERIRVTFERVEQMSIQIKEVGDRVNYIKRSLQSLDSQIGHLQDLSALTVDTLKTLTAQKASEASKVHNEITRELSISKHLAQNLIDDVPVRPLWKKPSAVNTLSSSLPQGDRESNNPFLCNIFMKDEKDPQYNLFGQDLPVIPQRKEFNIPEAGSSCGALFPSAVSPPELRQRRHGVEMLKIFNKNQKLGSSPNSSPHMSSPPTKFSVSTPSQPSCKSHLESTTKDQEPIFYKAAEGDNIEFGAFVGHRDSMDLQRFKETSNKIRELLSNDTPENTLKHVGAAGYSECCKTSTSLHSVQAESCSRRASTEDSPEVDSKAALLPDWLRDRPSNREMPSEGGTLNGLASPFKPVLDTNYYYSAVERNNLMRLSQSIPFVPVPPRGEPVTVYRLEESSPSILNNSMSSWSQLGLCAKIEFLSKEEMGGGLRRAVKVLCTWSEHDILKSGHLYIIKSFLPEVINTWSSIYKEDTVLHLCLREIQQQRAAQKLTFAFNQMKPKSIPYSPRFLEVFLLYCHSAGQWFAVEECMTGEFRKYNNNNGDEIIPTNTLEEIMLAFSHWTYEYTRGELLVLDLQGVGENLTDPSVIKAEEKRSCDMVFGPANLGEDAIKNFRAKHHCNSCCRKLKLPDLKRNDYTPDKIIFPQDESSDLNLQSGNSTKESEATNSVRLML
# Protocol: as §1
# [1] = molecular target: T3, purified TRPM7 reconstituted in lipid bilayers (Mus musculus, UniProt Q923J1); assay: Planar lipid bilayer single-channel recordings; format: biochemical; settings: 2.5 μM NTB, membrane potential –100 mV, n = 3; Po without agonist 0.02 ± 0.01
# T3 construct: truncated C-terminally (the corresponding protein residues 1–1280); GFP (N); thrombin cleavage site (LVPRG) (N); made in house; host or cells: HEK 293S GnTI- cells (BacMam baculovirus made in Sf9)
# T3 sequence (Q923J1 1-1280): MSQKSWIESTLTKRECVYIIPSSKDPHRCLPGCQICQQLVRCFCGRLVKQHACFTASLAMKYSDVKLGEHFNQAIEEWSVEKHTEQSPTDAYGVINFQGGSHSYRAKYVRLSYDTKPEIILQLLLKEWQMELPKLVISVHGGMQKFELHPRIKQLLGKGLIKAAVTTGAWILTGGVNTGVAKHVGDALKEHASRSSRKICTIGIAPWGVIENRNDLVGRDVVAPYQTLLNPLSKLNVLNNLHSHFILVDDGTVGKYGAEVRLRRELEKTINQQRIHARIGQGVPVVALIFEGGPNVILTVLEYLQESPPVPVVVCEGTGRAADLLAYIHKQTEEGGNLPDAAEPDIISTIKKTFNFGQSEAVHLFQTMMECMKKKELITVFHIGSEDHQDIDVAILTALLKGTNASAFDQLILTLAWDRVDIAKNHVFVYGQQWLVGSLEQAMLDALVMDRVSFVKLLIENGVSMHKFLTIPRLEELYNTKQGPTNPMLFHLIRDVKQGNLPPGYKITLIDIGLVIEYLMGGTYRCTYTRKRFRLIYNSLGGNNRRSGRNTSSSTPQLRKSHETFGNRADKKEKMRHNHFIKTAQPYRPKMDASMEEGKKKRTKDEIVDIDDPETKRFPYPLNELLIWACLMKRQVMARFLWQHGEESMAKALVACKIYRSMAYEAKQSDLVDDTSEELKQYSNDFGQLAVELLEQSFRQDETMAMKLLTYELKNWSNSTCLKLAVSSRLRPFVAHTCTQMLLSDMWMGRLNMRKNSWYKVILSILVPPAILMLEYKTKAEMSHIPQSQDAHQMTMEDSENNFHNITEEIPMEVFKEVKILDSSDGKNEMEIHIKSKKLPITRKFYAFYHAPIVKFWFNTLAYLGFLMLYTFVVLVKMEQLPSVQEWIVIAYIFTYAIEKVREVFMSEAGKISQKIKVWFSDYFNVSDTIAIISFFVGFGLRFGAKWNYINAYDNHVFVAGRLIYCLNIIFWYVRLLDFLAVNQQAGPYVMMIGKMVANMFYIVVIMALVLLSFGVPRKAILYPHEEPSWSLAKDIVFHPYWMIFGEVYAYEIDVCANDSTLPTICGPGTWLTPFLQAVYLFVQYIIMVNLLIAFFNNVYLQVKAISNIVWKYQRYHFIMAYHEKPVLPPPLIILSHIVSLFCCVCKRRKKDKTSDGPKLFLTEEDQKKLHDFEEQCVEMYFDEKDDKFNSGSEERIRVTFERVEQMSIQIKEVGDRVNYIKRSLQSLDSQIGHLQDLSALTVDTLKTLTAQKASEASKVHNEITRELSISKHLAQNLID
# Protocol: Planar lipid bilayers measurements were performed as described previously. Briefly, planar lipid bilayers were formed from a 30 mM solution of synthetic lipid mix POPC:POPE:POPG at a 3:1:1 ratio (Anatrace, P516:P416:P616) in n-decane (Sigma-Aldrich). The solution was used to paint a bilayer in an aperture of ∼150 µm diameter in a Meca chip (Nanion). Each cavity in the chip contained an individual integrated Ag/AgCl-microelectrode. The bathing solution contained 150 mM KCl, 0.02 mM MgCl2, 1 µM CaCl2 and 20 mM HEPES (pH 7.2). All the reagents (Sigma-Aldrich) were ultrapure (>99%). The bilayer capacitance was in the range of 5–10 pF.
# The purified protein (10 ng/ml) was added to the bilayer-forming lipid mix (1 volume of protein to 1 volume of the lipid mix) and incubated for 30 min at 30 °C. […] Only after the incubated protein-lipid mix was added by painting, the unitary currents were recorded using an Orbit mini device (Nanion) controlled by the pCLAMP 10.2 software (Molecular Devices). Data were low-pass filtered at […] and digitized at 1.22 kHz. Single-channel conductance events, all-points histograms, and other parameters were identified and analyzed using the Clampfit 10.3 software (Molecular Devices). Only recordings with one channel incorporated into the lipid bilayer were subjected to single-channel analysis. […]
# T1 sequence (Q923J1 whole entry L671A): as the sequence (Q923J1 whole entry N752K) above, with L671A, K752N counted along it
compound,measurement,setting,value
"Oc1ccc2c3c1O[C@H]1c4oc5ccccc5c4C[C@@]4(O)[C@@H](C2)N(CC2CC2)CC[C@]314 [Naltriben, naltriben]","sensitivity of TRPM7 currents to agonist, mutant vs WT",TRPM7-L671A,reduced sensitivity
same,"sensitivity of TRPM7 currents to agonist, mutant vs WT",TRPM7-N752K,reduced sensitivity
same,"open probability, Po",[1],0.44 ± 0.25
